Experimental data taken from PubChem BioAssay (NCI).
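1) Cells in 96-well plates. 2) Compound, 48 h, 5 concentrations. 3) Linear interpolation between surrounding doses. 4) Unreached endpoint = highest concentration. GI50 marks 50% less growth. The concentration for full growth arrest is given as TGI.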

How the values were obtained:
Experiment in all cases: NCI-60 cell line screen, 48 h
HOP-62 NSCLC = system: HOP-62 NSCLC
HL-60(TB) leukemia = system: HL-60(TB) leukemia
KM12 colon = system: KM12 colon
SK-OV-3 ovarian = system: SK-OV-3 ovarian
COLO 205 colon = system: COLO 205 colon
SW-620 colon = system: SW-620 colon
SR leukemia = system: SR leukemia
MDA-MB-435 = system: MDA-MB-435
MOLT-4 leukemia = system: MOLT-4 leukemia
SN12C renal = system: SN12C renal

Row | Structure (SMILES) | TGI (HOP-62 NSCLC) [µM] | TGI (HL-60(TB) leukemia) [µM] | TGI (KM12 colon) [µM] | TGI (SK-OV-3 ovarian) [µM] | TGI (COLO 205 colon) [µM] | TGI (SW-620 colon) [µM] | TGI (SR leukemia) [µM] | TGI (MDA-MB-435) [µM] | GI50 (HOP-62 NSCLC) [µM] | GI50 (HL-60(TB) leukemia) [µM] | GI50 (KM12 colon) [µM] | GI50 (SK-OV-3 ovarian) [µM] | GI50 (MOLT-4 leukemia) [µM] | TGI (MOLT-4 leukemia) [µM] | GI50 (COLO 205 colon) [µM] | GI50 (SW-620 colon) [µM] | GI50 (SN12C renal) [µM] | TGI (SN12C renal) [µM] | GI50 (SR leukemia) [µM] | GI50 (MDA-MB-435) [µM]
1 | O=C(/C=C\c1ccccc1)N1CCc2ccccc2C1 | > 100 | 83.6 | > 100 | > 100 | 57.1 | > 100 | 69.1 | 84.1 |  |  |  |  |  |  |  |  |  |  |  | 
2 | C[C@@H]1COCCN1c1cc(C2(O)C[C@H]3CC[C@@H](C2)O3)c2cnn(-c3ccn[nH]3)c2n1 (some centres not stated) | 1.41 |  | 9.73 | 4.03 | 2.52 | > 37.7 | 26.9 | 0.692 | 0.0786 | 0.172 | 0.167 | 0.0992 | 0.0437 | > 67.3 | 0.253 | 0.187 | 0.143 | 4.09 | 0.0112 | 0.0685
3 | CCN(Cc1c(Cl)cccc1Cl)c1ccc(CO)c(Cl)c1 | 21.2 | 25.7 | 28.4 | 22.3 | 11.7 | 17 | 36.7 | 22.4 | 2.15 | 8.17 | 13.7 | 9.84 | 14.8 | 35.7 | 2.41 | 0.549 | 11.7 | 24 | 12.8 | 9.22
4 | Cc1coc2c1C(OC(=O)C(C)C)C1(C)C(C)CCC(O)C1C2=O (configuration not stated) | > 100 | > 100 | > 100 | > 100 | > 100 | > 100 | > 100 | > 100 |  |  |  |  |  | > 100 |  |  |  | > 100 |  | 
5 | Cc1c(Cl)cccc1NC(=O)c1sc2nc3c(cc2c1N)CCCCC3 | 45.3 | 0.484 | > 50 | 29.9 | 13.2 | > 50 | > 50 | 0.317 | 0.411 | 0.143 | 0.236 | 0.23 | 0.275 | > 50 | 0.596 | 0.232 | 1.44 | > 50 | 0.174 | 0.104
6 | O=C1OCC2=C1C(c1ccccc1)c1cc3c(cc1N2CCO)OCCO3 (configuration not stated) | > 50 | 0.406 | 6.19 | 13.4 | 0.978 | > 50 | 2.57 | 0.32 | 0.763 | 0.118 | 0.207 | 0.348 | 0.236 | > 10.4 | 0.24 | 0.224 | 4.46 | > 50 | 0.14 | 0.113
7 | CN(C)CCCn1c(-c2nonc2N)nc2cnccc21 | > 25 | > 25 | > 25 | > 25 | > 25 | > 25 | > 25 | > 25 | > 25 | > 25 | > 25 | > 25 | > 25 | > 25 | > 25 | > 25 | > 25 | > 25 | > 25 | > 25
